Test results reported in ChEMBL document CHEMBL1146758, “Design, synthesis and structure-activity relationship studies of novel indazole analogues as DNA gyrase inhibitors with Gram-positive antibacterial activity” (Bioorg Med Chem Lett, 2004).
Converted amounts (≈) assume the structure as drawn.

Key:
DNA gyrase [1] = molecular target: DNA gyrase (Escherichia coli, UniProt P0AES4+P0AES6); assay: (§1) Inhibitory activity against Escherichia coli DNA gyrase; format: protein-complex assay
Enterococcus faecalis [2] = assay: Inhibitory activity against Enterococcus faecalis ATCC 29212; format: functional
Enterococcus faecalis [3] = assay: Inhibitory activity against Enterococcus faecalis KU 1777; format: functional
Staphylococcus aureus [4] = assay: Inhibitory activity against Staphylococcus aureus FDA 209P; format: functional
Staphylococcus aureus [5] = assay: Inhibitory activity against Staphylococcus aureus KMP9; format: functional
Nucleic Acid [6] = assay: Inhibitory activity against Escherichia coli DNA topoisomerase IV; format: nucleic-acid assay
DNA topoisomerase II [7] = molecular target: T1, DNA topoisomerase II (Homo sapiens, UniProt P11388+Q02880); assay: Inhibitory activity against human DNA topoisomerase II; format: protein assay
Nucleic Acid [8] = assay: Escherichia coli DNA topoisomerase IV decatenation activity was determined; format: nucleic-acid assay
DNA topoisomerase II [9] = molecular target: T1, DNA topoisomerase II; assay: Human DNA topoisomerase II relaxation activity was determined; format: protein assay
DNA gyrase [10] = molecular target: DNA gyrase (Escherichia coli, UniProt P0AES6+P0AES4); assay: as §1; format: protein-complex assay
[11] = Enterococcus faecalis, ATCC 29212, read-out: MIC
[12] = Enterococcus faecalis, read-out: MIC
[13] = Staphylococcus aureus, read-out: MIC

Row | IC50 (DNA gyrase [1]) [µM] | MIC (Enterococcus faecalis [2]; [11]) [µg/mL] | MIC (Enterococcus faecalis [3]; [12]) [µg/mL] | MIC (Staphylococcus aureus [4]; [13]) [µg/mL] | MIC (Staphylococcus aureus [5]; [13]) [µg/mL] | IC50 (Nucleic Acid [8]) [µg/mL] | IC50 (DNA topoisomerase II [9]) [µg/mL] | IC50 (DNA gyrase [10]) [nM] | MIC (Enterococcus faecalis [2]) [µg/mL] | MIC (Staphylococcus aureus [4]) [µg/mL] | MIC (Staphylococcus aureus [5]) [µg/mL] | MIC (Enterococcus faecalis [3]) [µg/mL] | SMILES | IC50 (Nucleic Acid [6]) [µg/mL] | IC50 (DNA topoisomerase II [7]) [µg/mL]
1 | 39.1 | 16 (≈ 39.1 µM) | 16 (≈ 39.1 µM) | 16 (≈ 39.1 µM) | 16 (≈ 39.1 µM) |  |  |  |  |  |  |  | CCOC(=O)CCCNc1[nH]nc2cccc(OCc3ccc(C(C)(C)C)cc3)c12 |  | 
2 | 36.7 | 32 (≈ 73.5 µM) | 32 (≈ 73.5 µM) | 32 (≈ 73.5 µM) | 32 (≈ 73.5 µM) |  |  |  |  |  |  |  | COC(=O)C1CCN(Cc2n[nH]c3cccc(OCc4ccc(C(C)(C)C)cc4)c23)CC1 |  | 
3 | 18.3 | 128 (≈ 293 µM) | 64 (≈ 147 µM) | 64 (≈ 147 µM) | 128 (≈ 293 µM) |  |  |  |  |  |  |  | COC(=O)[C@@H]1C[C@@H](NCc2n[nH]c3cccc(OCc4ccc(C(C)(C)C)cc4)c23)CN1 |  | 
4 | 78.3 | 64 (≈ 157 µM) | 32 (≈ 78.3 µM) | 32 (≈ 78.3 µM) | 64 (≈ 157 µM) |  |  |  |  |  |  |  | CC(C)(C)c1ccc(COc2cccc3[nH]nc(CN[C@H]4CN[C@H](CO)C4)c23)cc1 |  | 
5 | 21.1 | 64 (≈ 169 µM) | 64 (≈ 169 µM) | 64 (≈ 169 µM) | 64 (≈ 169 µM) |  |  |  |  |  |  |  | COC(=O)C1CCCC(Nc2[nH]nc3cccc(OCc4ccccc4)c23)C1 (configuration not stated) |  | 
6 | 198 | 32 (≈ 98.9 µM) | 16 (≈ 49.5 µM) | 32 (≈ 98.9 µM) | 64 (≈ 198 µM) |  |  |  |  |  |  |  | CNCc1n[nH]c2cccc(OCc3ccc(C(C)(C)C)cc3)c12 |  | 
7 | 18.3 | 64 (≈ 147 µM) | 64 (≈ 147 µM) | 64 (≈ 147 µM) | 64 (≈ 147 µM) |  |  |  |  |  |  |  | COC(=O)[C@@H]1C[C@H](NCc2n[nH]c3cccc(OCc4ccc(C(C)(C)C)cc4)c23)CN1 |  | 
8 | 0.536 | > 128 | > 128 | > 128 | > 128 |  |  |  |  |  |  |  | Cc1cc(=O)oc2cc(CCc3n[nH]c4cccc(OCc5ccc(C(C)(C)C)cc5)c34)ccc12 | > 128 | > 400
9 | 38.5 | 128 (≈ 308 µM) | 128 (≈ 308 µM) | 128 (≈ 308 µM) | 128 (≈ 308 µM) |  |  |  |  |  |  |  | COC(=O)C1CCCC(Nc2[nH]nc3cccc(OCc4ccc(F)c(F)c4)c23)C1 (configuration not stated) |  | 
10 | 8.9 | > 128 | > 128 | > 128 | > 128 |  |  |  |  |  |  |  | COC(=O)C1CN(Cc2n[nH]c3cccc(OCc4ccc(C(C)(C)C)cc4)c23)CCC1=O (configuration not stated) |  | 
11 | 8.9 | 8 (≈ 17.8 µM) | 4 (≈ 8.9 µM) | 4 (≈ 8.9 µM) | 4 (≈ 8.9 µM) | > 128 | > 400 |  |  |  |  |  | COC(=O)C1CCCC(NCc2n[nH]c3cccc(OCc4ccc(C(C)(C)C)cc4)c23)C1 (configuration not stated) |  | 
12 | 31 | 2 (≈ 4.43 µM) | 2 (≈ 4.43 µM) | 1 (≈ 2.22 µM) | 1 (≈ 2.22 µM) | 8 (≈ 17.7 µM) | > 400 |  |  |  |  |  | Cn1cc(/C=C/c2cc(C3CCNCC3)nn2-c2cccc(Cl)c2)c2cc(Cl)ccc21 |  | 
13 | 83.9 | > 128 | > 128 | > 128 | > 128 |  |  |  |  |  |  |  | CC(C)(C)c1ccc(COc2cccc3[nH]nc(NCCCC(=O)O)c23)cc1 |  | 
14 | 142 | > 128 | > 128 | > 128 | > 128 |  |  |  |  |  |  |  | COC(=O)C1CCCC(Nc2[nH]nc3cccc(OCc4cnc(Cl)c(Cl)c4)c23)C1 (configuration not stated) |  | 
15 | 157 | 64 (≈ 157 µM) | 64 (≈ 157 µM) | 64 (≈ 157 µM) | 64 (≈ 157 µM) |  |  |  |  |  |  |  | CC(C)(C)c1ccc(COc2cccc3[nH]nc(CN[C@@H]4CN[C@H](CO)C4)c23)cc1 |  | 
16 | 9.18 | 8 (≈ 18.4 µM) | 4 (≈ 9.18 µM) | 4 (≈ 9.18 µM) | 4 (≈ 9.18 µM) |  |  |  |  |  |  |  | COC(=O)C1CCCC(Nc2[nH]nc3cccc(OCc4ccc(C(C)(C)C)cc4)c23)C1 (configuration not stated) |  | 
17 | 39.2 | 16 (≈ 39.2 µM) | 16 (≈ 39.2 µM) | 4 (≈ 9.8 µM) | 8 (≈ 19.6 µM) |  |  |  |  |  |  |  | COC(=O)C1CCCC(NCc2cc(/C=C/c3ccc(Cl)c(Cl)c3)[nH]n2)C1 (configuration not stated) |  | 
18 | 2.23 | 4 (≈ 8.92 µM) | 4 (≈ 8.92 µM) | 4 (≈ 8.92 µM) | 4 (≈ 8.92 µM) |  |  |  |  |  |  |  | COC(=O)C1CCCC(Nc2[nH]nc3cccc(OCc4ccc(Cl)c(Cl)c4)c23)C1 (configuration not stated) |  | 
19 | 39.2 | 16 (≈ 39.2 µM) | 16 (≈ 39.2 µM) | 4 (≈ 9.8 µM) | 8 (≈ 19.6 µM) |  |  |  |  |  |  |  | COC(=O)C1CCCC(NCc2cc(/C=C\c3ccc(Cl)c(Cl)c3)[nH]n2)C1 (configuration not stated) |  | 
20 | 2.16 | 4 (≈ 8.65 µM) | 4 (≈ 8.65 µM) | 4 (≈ 8.65 µM) | 4 (≈ 8.65 µM) | > 128 | > 400 |  |  |  |  |  | COC(=O)C1CCCC(NCc2n[nH]c3cccc(OCc4ccc(Cl)c(Cl)c4)c23)C1 (configuration not stated) |  | 
21 | 36.7 | 64 (≈ 147 µM) | 32 (≈ 73.5 µM) | 32 (≈ 73.5 µM) | 64 (≈ 147 µM) |  |  |  |  |  |  |  | COC(=O)C1CCCN(Cc2n[nH]c3cccc(OCc4ccc(C(C)(C)C)cc4)c23)C1 (configuration not stated) |  | 
22 | 38.7 | 64 (≈ 155 µM) | 32 (≈ 77.3 µM) | 32 (≈ 77.3 µM) | 32 (≈ 77.3 µM) |  |  |  |  |  |  |  | COC(=O)C1CCCC(Nc2[nH]nc3cccc(OCc4ccc(Cl)cc4)c23)C1 (configuration not stated) |  | 
23 | 169 | 32 (≈ 84.5 µM) | 16 (≈ 42.3 µM) | 16 (≈ 42.3 µM) | 32 (≈ 84.5 µM) |  |  |  |  |  |  |  | CC(C)(C)c1ccc(COc2cccc3[nH]nc(CN4CCNCC4)c23)cc1 |  | 
24 | 17.8 | 16 (≈ 35.6 µM) | 16 (≈ 35.6 µM) | 16 (≈ 35.6 µM) | 32 (≈ 71.2 µM) |  |  |  |  |  |  |  | CCOC(=O)C1CCCN(Cc2n[nH]c3cccc(OCc4ccc(C(C)(C)C)cc4)c23)C1 (configuration not stated) |  | 
25 |  |  |  |  |  |  |  | 2340 | 32 (≈ 75 µM) | 8 (≈ 18.7 µM) | 8 (≈ 18.7 µM) |  | COC(=O)C1CCCC(NCc2cc(/C=C/c3cn(C)c4ccc(Cl)cc34)[nH]n2)C1 (stereo in doubt; 7ba) |  | 
26 | 2.34 | 64 (≈ 150 µM) | 32 (≈ 75 µM) | 16 (≈ 37.5 µM) | 16 (≈ 37.5 µM) |  |  |  |  |  |  |  | COC(=O)C1CCCC(NCc2cc(/C=C/c3cn(C)c4ccc(Cl)cc34)[nH]n2)C1 (stereo in doubt; 7bb) |  | 
27 | 2.34 |  |  | 4 (≈ 9.37 µM) | 8 (≈ 18.7 µM) |  |  |  | 8 (≈ 18.7 µM) |  |  | 8 (≈ 18.7 µM) | COC(=O)C1CCCC(NCc2cc(/C=C\c3cn(C)c4ccc(Cl)cc34)[nH]n2)C1 (stereo in doubt; 8ba) |  | 
28 | 1.17 |  |  |  |  |  |  |  | 64 (≈ 150 µM) | 8 (≈ 18.7 µM) | 16 (≈ 37.5 µM) | 32 (≈ 75 µM) | COC(=O)C1CCCC(NCc2cc(/C=C\c3cn(C)c4ccc(Cl)cc34)[nH]n2)C1 (stereo in doubt; 8bb) |  | 

Row | SMILES | IC50 (DNA gyrase [1]) [µM] | MIC (Enterococcus faecalis [2]; [11]) [µg/mL] | MIC (Enterococcus faecalis [3]; [12]) [µg/mL] | MIC (Staphylococcus aureus [4]; [13]) [µg/mL] | MIC (Staphylococcus aureus [5]; [13]) [µg/mL] | IC50 (Nucleic Acid [8]) [µg/mL] | IC50 (DNA topoisomerase II [9]) [µg/mL] | IC50 (DNA gyrase [10]) [nM] | MIC (Enterococcus faecalis [2]) [µg/mL] | MIC (Staphylococcus aureus [4]) [µg/mL] | MIC (Staphylococcus aureus [5]) [µg/mL] | MIC (Enterococcus faecalis [3]) [µg/mL] | IC50 (Nucleic Acid [6]) [µg/mL] | IC50 (DNA topoisomerase II [7]) [µg/mL]
29 | c1ccc(COc2ccc(-c3cc(C4CCNCC4)[nH]n3)cc2)cc1 | 384 | 64 (≈ 192 µM) | 64 (≈ 192 µM) | 64 (≈ 192 µM) | 64 (≈ 192 µM) |  |  |  |  |  |  |  | 128 (≈ 384 µM) | 200 (≈ 600 µM)
30 | Clc1cccc(-n2nc(C3CCNCC3)cc2/C=C/c2c[nH]c3ccc(Cl)cc23)c1 | 32 | 2 (≈ 4.57 µM) | 2 (≈ 4.57 µM) | 1 (≈ 2.29 µM) | 1 (≈ 2.29 µM) | 8 (≈ 18.3 µM) | > 400 |  |  |  |  |  |  | 
31 | CO[C@@H]1[C@@H](OC(N)=O)[C@@H](O)[C@H](Oc2ccc3c(O)c(NC(=O)c4ccc(O)c(CC=C(C)C)c4)c(=O)oc3c2C)OC1(C)C [NOVOBIOCIN] |  | 2 (≈ 3.26 µM) | 2 (≈ 3.26 µM) | 0.25 (≈ 0.408 µM) | 0.25 (≈ 0.408 µM) |  |  |  |  |  |  |  | 25 (≈ 40.8 µM) | > 400
